Data reported in US20250304537A1 (Repare Therapeutics Inc., priority 2022, published 2025).
pIC50: −log10 of the molar value. Read-outs that look alike come from different tables or passages of the source.

Columns and labels:
[1] = biological target: recombinant human Myt1 (full length PKMYT1) (Homo sapiens (Human), UniProt Q99640); test: Recombinant human Myt1 kinase assay (ADP-Glo); assay type: biochemical; conditions: 10 μM ATP
How it was run: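 Full-length insect-cell-expressed human Myt1 (18 nM final) was preincubated with compound (0.5% DMSO) for 15 min at 22 °C. The reaction ran with 10 μM ATP for 60 min at 30 °C in HEPES buffer with Mg2+/Mn2+ and DTT. ADP formed was read by ADP-Glo luminescence, giving IC50 and % max inhibition.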

[2] = test system: PKMYT1 (CDK1 pThr14) in FUOV1 cells; test: PKMYT1 cell-based activity assay, CDK1 pThr14 AlphaLISA in FUOV1 cells; conditions: read-out: FUOV-1 CDK1 pThr14 IC50
How it was run: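 FUOV1 cells were treated with PKMYT1 inhibitor for 2 h at 37 °C, then lysed. CDK1 pThr14 was measured by AlphaLISA, pairing an anti-pThr14 antibody with an anti-total CDK1 antibody (5 nM each). Signal read at 680/615 nm and used to derive IC50.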

recombinant human Myt1 (full length PKMYT1), sequence (Q99640 whole entry): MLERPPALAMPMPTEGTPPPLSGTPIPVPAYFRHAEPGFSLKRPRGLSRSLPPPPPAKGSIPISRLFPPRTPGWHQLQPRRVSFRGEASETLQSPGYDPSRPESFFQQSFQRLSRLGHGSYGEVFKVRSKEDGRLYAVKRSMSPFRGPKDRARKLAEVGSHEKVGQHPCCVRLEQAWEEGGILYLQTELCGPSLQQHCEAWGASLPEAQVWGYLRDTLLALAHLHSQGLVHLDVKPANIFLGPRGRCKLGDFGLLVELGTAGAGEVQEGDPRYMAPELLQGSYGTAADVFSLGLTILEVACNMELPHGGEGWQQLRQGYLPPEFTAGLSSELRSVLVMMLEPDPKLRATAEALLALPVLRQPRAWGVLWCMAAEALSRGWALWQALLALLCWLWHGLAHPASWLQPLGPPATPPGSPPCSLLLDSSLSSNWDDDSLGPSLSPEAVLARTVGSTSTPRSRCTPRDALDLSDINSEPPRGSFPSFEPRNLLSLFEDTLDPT

Row | Structure (SMILES) | pIC50 [1] | pIC50 ([2]; 2 h, 2 h incubation) | pIC50 ([2]; 2 h, 2 h compound incubation) | pIC50 ([2]; 2 h, 2 hours with compound) | pIC50 ([2]; 2 h incubation)
1 | Cc1ccc2[nH]ncc2c1-c1cc(-c2ccnc(Oc3ccccc3)n2)nc(C(N)=O)c1N [Compound 173] | 8.22 | 6.56 |  |  | 
2 | Cc1ccc2[nH]ncc2c1-c1nc(-c2ccccc2NCC(F)(F)F)nc(C(N)=O)c1N [Compound 409] | 8.30 |  | 7.55 |  | 
3 | Cc1ccc2[nH]ncc2c1-c1nc(-c2ccccc2NS(C)(=O)=O)nc(C(N)=O)c1N [Compound 427, 5-amino-6-(5-methyl-1H-indazol-4-yl)-2-(2-(methylsulfonamido)phenyl)pyrimidine-4-carboxamide] | 8.40 |  | 7.64 |  | 
4 | Cc1ccc(O)c(C)c1-c1cc(-c2ccnnc2)nc(C(N)=O)c1N [Compound 52] | 8.10 | 7.35 |  |  | 
5 | CNCCOc1nccc(-c2cc(-c3c(C)ccc4[nH]ncc34)c(N)c(C(N)=O)n2)n1 [Compound 210] | 8.00 | 6.47 |  |  | 
6 | Cc1ccc2[nH]ncc2c1-c1nc(-c2cn(C)nc2NC2CC(F)(F)C2)nc(C(N)=O)c1N [Compound 896] | 8.40 |  |  | 6.83 | 
7 | Cc1ccc(-c2nc(C(N)=O)c(N)c(-c3c(C)ccc4[nH]ncc34)n2)c(Nc2nccnc2C)n1 [Compound 658] | 8.30 |  | 8.10 |  | 
8 | COc1cccc(-c2cc(-c3c(C)ccc(O)c3C)c(N)c(C(N)=O)n2)n1 [Compound 66] | 8.70 |  |  |  | 6.77
9 | Cc1ccc2[nH]ncc2c1-c1cc(-c2ccnnc2)nc(C(N)=O)c1N [Compound 86] | 7.24 |  |  |  | 6.02
10 | Cc1ccc2[nH]ncc2c1-c1nc(-c2cc(F)c(F)cc2NC(=O)C2(C(F)(F)F)CCC2)nc(C(N)=O)c1N [Compound 470] | 7.74 |  | 5.91 |  | 
11 | Cc1ccc2[nH]ncc2c1-c1nc(-c2cccnc2N[C@@H]2CCO[C@@H](C)C2)nc(C(N)=O)c1N [Compound 605] | 8.40 |  | 6.55 |  | 
12 | Cc1ccc2[nH]ncc2c1-c1nc(-c2cccnc2NC2CCOCC2C)nc(C(N)=O)c1N (stereo not shown) [Compound 606] | 8.70 |  | 7.17 |  | 
13 | Cc1ccc2[nH]ncc2c1-c1nc(-c2ccccc2NCC2(C)CC2)nc(C(N)=O)c1N [Compound 452] | 7.80 |  | 6.91 |  | 
14 | Cc1ccc2[nH]ncc2c1-c1nc(-c2cc(F)ccc2Nc2ncccn2)nc(C(N)=O)c1N [Compound 472] | 8.22 |  | 7.59 |  | 
15 | Cc1ccc2[nH]ncc2c1-c1nc(-c2cccc3c2NCCO3)nc(C(N)=O)c1N [Compound 852] | 7.77 |  |  | 6.30 | 
16 | Cc1ccc(O)c(C)c1-c1cc(-c2cnccn2)cc(C(N)=O)c1N [Compound 84] | 8.00 | 6.45 |  |  | 

Row | Structure (SMILES) | pIC50 [1] | pIC50 ([2]; 2 h, 2 h incubation) | pIC50 ([2]; 2 h, 2 h compound incubation) | pIC50 ([2]; 2 h, 2 hours with compound) | pIC50 ([2]; 2 h incubation)
17 | Cc1ccc(O)c(C)c1-c1cc(-c2cccc(OC3CCOCC3)n2)nc(C(N)=O)c1N [Compound 57] | 8.15 | 7.34 |  |  | 
18 | Cc1ccc2[nH]ncc2c1-c1nc(-c2ccccc2C(O)c2ccccn2)nc(C(N)=O)c1N (stereo not shown) [Compound 788] | 7.36 |  | 5.90 |  | 
19 | Cc1ccc(O)c(C)c1-c1cc(-c2ccnc(N)c2)cc(C(N)=O)c1N [Compound 64] | 8.22 | 6.59 |  |  | 
20 | Cc1ccc2[nH]ncc2c1-c1nc(-c2ccccc2NC(=O)C2CCOCC2)nc(C(N)=O)c1N [Compound 424] | 8.40 |  | 7.09 |  | 
21 | CCNc1ccccc1-c1nc(C(N)=O)c(N)c(-c2c(C)ccc3[nH]ncc23)n1 [Compound 442] | 8.40 |  | 7.48 |  | 
22 | Cc1ccc2[nH]ncc2c1-c1nc(-c2cc(F)c(F)cc2NC2CCN(C)CC2)nc(C(N)=O)c1N [Compound 485] | 8.15 |  | 7.28 |  | 
23 | Cc1ccc2[nH]ncc2c1-c1nc(-c2ccccc2NC(=O)C2(C)CCC2)nc(C(N)=O)c1N [Compound 416] | 8.15 |  | 7.66 |  | 
24 | CO[C@H](COc1nccc(-c2cc(-c3c(C)ccc4[nH]ncc34)c(N)c(C(N)=O)n2)n1)c1ccccc1 (atropisomer, axis not shown) [Compound 309] | 8.30 | 7.66 |  |  | 
25 | Cc1ccc2[nH]ncc2c1-c1nc(-c2cc(F)cc3c2NC(=O)C3)nc(C(N)=O)c1N [Compound 393] | 8.22 | 6.54 |  |  | 
26 | Cc1ccc2[nH]ncc2c1-c1cc(-c2cccc(F)n2)nc(C(N)=O)c1N [Compound 241] | 8.00 | 5.71 |  |  | 
27 | Cc1ccc(O)c(C)c1-c1cc(-c2cccc(OC3CCOCC3)n2)nc(C(N)=O)c1N [Compound 94] | 8.70 |  |  |  | 7.51
28 | Cc1ccc2[nH]ncc2c1-c1cc(-c2ccnc(OCCn3ccnc3)n2)nc(C(N)=O)c1N [Compound 315] | 8.05 | 6.46 |  |  | 
29 | Cc1ccc2[nH]ncc2c1-c1nc(-c2cccnc2Nc2ccccc2F)nc(C(N)=O)c1N [Compound 610] | 8.00 |  | 6.40 |  | 
30 | Cc1ccc(NC(=O)C2(C)CC2)c(-c2nc(C(N)=O)c(N)c(-c3c(C)ccc4[nH]ncc34)n2)c1 [Compound 437] | 8.10 |  | 7.23 |  | 
31 | Cc1cncnc1Nc1cc(F)ccc1-c1nc(C(N)=O)c(N)c(-c2c(C)ccc3[nH]ncc23)n1 [Compound 617] | 8.40 |  | 8.15 |  | 

The next lines start with the values.

Row | pIC50 [1] | pIC50 ([2]; 2 h, 2 h incubation) | pIC50 ([2]; 2 h, 2 h compound incubation) | pIC50 ([2]; 2 h, 2 hours with compound) | pIC50 ([2]; 2 h incubation) | Structure (SMILES)
32 | 8.70 | 6.70 |  |  |  | Cc1ccc2[nH]ncc2c1-c1cc(-c2cccc(O[C@@H]3CCOC3)n2)nc(C(N)=O)c1N (atropisomer, axis not shown) [Compound 227, (R)-5-amino-4-(5-methyl-1H-indazol-4-yl)-6′-(((R)-tetrahydrofuran-3-yl)oxy)-[2,2′-bipyridine]-6-carboxamide]
33 | 8.15 |  | 7.55 |  |  | Cc1ccc2[nH]ncc2c1-c1nc(-c2ccccc2NC(=O)C(C)(C)C)cc(C(N)=O)c1N [Compound 398]
34 | 8.15 | 6.61 |  |  |  | Cc1ccc2[nH]ncc2c1-c1cc(-c2cccc(OCc3cccnn3)n2)nc(C(N)=O)c1N [Compound 242]
35 | 8.15 |  | 7.64 |  |  | Cc1ccc2[nH]ncc2c1-c1nc(-c2cc(F)c(F)cc2NC(=O)C2(C)CCN(C)C2)nc(C(N)=O)c1N (stereo not shown) [Compound 484]
36 | 8.52 |  |  | 7.66 |  | Cc1ccc2[nH]ncc2c1-c1nc(-c2cc(F)ncc2NC2CCOCC2)nc(C(N)=O)c1N [Compound 843]
37 | 8.40 |  | 6.38 |  |  | Cc1ccc2[nH]ncc2c1-c1nc(-c2cccnc2Nc2cccc(C(N)=O)c2)nc(C(N)=O)c1N [Compound 609]
38 | 7.40 | 6.60 |  |  |  | Cc1ccc2[nH]ncc2c1-c1cc(-c2csc(OC3COC3)n2)nc(C(N)=O)c1N [Compound 224]
39 | 8.15 |  | 6.98 |  |  | Cc1ccc2[nH]ncc2c1-c1nc(-c2ccccc2NC(C)(C)C)nc(C(N)=O)c1N [Compound 451]
40 | 6.86 | 6.09 |  |  |  | NC(=O)c1nc(-c2ccccc2)nc(-c2cc(F)cc3[nH]ncc23)c1N [Compound 122]
41 | 8.00 | 6.03 |  |  |  | Cc1ccc2[nH]ncc2c1-c1cc(-c2ccnc(N3CCCC3)n2)nc(C(N)=O)c1N [Compound 174]
42 | 7.54 | 5.12 |  |  |  | Cc1ccc2[nH]ncc2c1-c1cc(-c2ccnc(S(C)(=O)=O)n2)nc(C(N)=O)c1N [Compound 168]
43 | 8.30 |  | 8.40 |  |  | Cc1ccc2[nH]ncc2c1-c1nc(-c2ccccc2NC(=O)C2(C)CC2)nc(C(N)=O)c1N [Compound 401]
44 | 8.22 |  | 6.50 |  |  | Cc1ccc2[nH]ncc2c1-c1nc(-c2cccnc2Nc2ccccc2)nc(C(N)=O)c1N [Compound 607]
